Measurements: BindingDB's records for PubMed 35785990 (Sage Therapeutics, 2022)

Target: Inward rectifier potassium channel 2 (Homo sapiens) (UniProt P63252)
Assay: Inhibition of Kir2.1 (unknown origin) by patch clamp method

Inward rectifier potassium channel 2 (Homo sapiens), sequence (P63252 whole entry, looked up): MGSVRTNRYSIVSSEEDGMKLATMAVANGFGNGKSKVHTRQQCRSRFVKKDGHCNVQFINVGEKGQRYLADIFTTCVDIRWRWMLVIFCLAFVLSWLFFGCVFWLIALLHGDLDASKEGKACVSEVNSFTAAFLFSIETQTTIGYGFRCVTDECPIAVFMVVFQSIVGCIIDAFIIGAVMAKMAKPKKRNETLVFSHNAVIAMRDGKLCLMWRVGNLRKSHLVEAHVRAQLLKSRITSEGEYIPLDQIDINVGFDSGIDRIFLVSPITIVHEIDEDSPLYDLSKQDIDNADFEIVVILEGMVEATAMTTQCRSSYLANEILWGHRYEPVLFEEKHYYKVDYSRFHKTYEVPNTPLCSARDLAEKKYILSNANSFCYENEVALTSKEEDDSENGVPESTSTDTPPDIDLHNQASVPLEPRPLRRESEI

**Q.** With `C[C@H](CC[C@](C)(O)C(F)(F)F)[C@H]1CC[C@H]2[C@@H]3CC=C4C[C@@](C)(O)CC[C@]4(C)[C@H]3CC[C@]12C` [Dalzanemdor] as the compound, how does the IC50 read?
**A.** > 30 µM
